Legend:
AppA [1] = target: T1, AppA (Cereibacter sphaeroides, UniProt Q53119); test: biochemical
T1 sequence (Q53119 1-450): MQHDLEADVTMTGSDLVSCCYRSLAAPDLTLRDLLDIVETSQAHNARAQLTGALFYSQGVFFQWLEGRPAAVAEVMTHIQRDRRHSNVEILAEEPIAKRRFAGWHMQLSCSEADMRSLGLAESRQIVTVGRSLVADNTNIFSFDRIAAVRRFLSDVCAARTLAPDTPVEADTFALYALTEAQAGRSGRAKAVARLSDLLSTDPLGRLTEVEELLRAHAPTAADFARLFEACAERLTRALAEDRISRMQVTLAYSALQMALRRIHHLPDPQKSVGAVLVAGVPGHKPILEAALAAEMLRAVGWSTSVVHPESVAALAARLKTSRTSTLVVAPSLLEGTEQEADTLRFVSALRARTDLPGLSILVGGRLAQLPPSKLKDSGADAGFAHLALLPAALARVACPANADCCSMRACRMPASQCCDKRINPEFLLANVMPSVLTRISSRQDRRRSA

AppA [2] = target: T1, AppA; test: co-purification, flavin absorption spectrum; format: binding; conditions: BLUF domain cofactor as purified

| SMILES | Kd (AppA [1]) [nM] | co-purification, flavin absorption spectrum (AppA [2]) |
| --- | --- | --- |
| C=CC1=C(C)C2=Cc3c(C=C)c(C)c4[n]3[Fe+][n]3c(c(C)c(CCC(=O)O)c3=CC3=NC(=C4)C(C)=C3CCC(=O)O)=CC1=N2 [heme] | 1250 ± 440 | – |
| Cc1cc2nc3c(=O)[nH]c(=O)nc-3n(C[C@H](O)[C@H](O)[C@H](O)COP(=O)(O)OP(=O)(O)OC[C@H]3O[C@@H](n4cnc5c(N)ncnc54)[C@H](O)[C@@H]3O)c2cc1C [flavin adenine dinucleotide] | – | it does contain flavin adenine dinucleotide (FAD) as the BLUF domain cofactor |
